Laboratory results: PMC7746742, “The novel rexinoid MSU-42011 is effective for the treatment of preclinical Kras-driven lung cancer” (Scientific Reports, 2020)
Where two headings read alike, the source gives them in different places.

What was measured:
[1] = system: SREBP; experiment: SREBP mRNA expression assay in HepG2 cells (RT-PCR); assay type: cell-based, human; conditions: for Effect on the induction of SREBP mRNA by LG100268: combined with LG100268 300 nM, GSK 2033 500 nM; for Effect on the induction of SREBP mRNA by LG100268 / SREBP mRNA expression compared to the vehicle control: HX 531 100 nM; for SREBP mRNA expression compared to the vehicle control: LG100268 300 nM, T0901317 500 nM, alone or combined; for SREBP activation Fold induction vs. Control / fold induction at 0.3 µM: HepG2 cells, 300 nM rexinoids, 8 h, SREBP mRNA by RT-PCR, mean ± SD of 3 experiments; for fold induction at 0.3 µM: Homo sapiens, read-out: SREBP activation Fold induction vs. Control
Method: The goals of our structure–activity relationship (SAR) studies were to explore and discover new scaffolds that not only bind to RXR but also are able to independently modulate both iNOS and SREBP activity in accordance with a previously described screening paradigm. To characterize the effect of the novel rexinoids on SREBP elevation in vitro, HepG2 cells were treated with 300 nM rexinoids for 8 h and SREBP mRNA levels were measured by RT-PCR. SREBP expression ranged from no change to a 4.6-fold induction compared to the vehicle control when treated with the novel compounds. […] Analogs MSU- 41402, 41582, 41407, 41566, 41844, 41845, 42011, and 42166 induced an SREPB mRNA fold expression change of 1–1.5 normalized to a vehicle control, while bexarotene induced an mRNA fold expression change of > 2 (Table 1).
(§1) HepG2 were plated in 6-well plates (1 × 10^6 cells/well) and, after allowing the cells to attach overnight, were treated with 300 nM rexinoids and/or varying concentrations of T0901317 (TOCRIS # 2373), GSK 2033 (TOCRIS # 5694), HX 531 (TOCRIS # 3912) for 8 h. Total RNA was isolated with TRIzol (Invitrogen, Carlsbad, CA) and 2 µg RNA was used to synthesize cDNA using the SuperScript III reverse transcriptase kit (Invitrogen, Carlsbad, CA). Primers (IDT) for SREBP (F: 5′-GCCGGTTGATAGGCAGCTT-3′; R: 5′-GGTGAGTGGCGGAACCATT-3′) and GAPDH (F: 5′-[…]-3′; R: 5′-[…]-3′), the SYBR Green Supermix (Bio-rad Laboratories, Hercules, CA) and the QuantStudio 7 Flex Real-Time PCR system (95 °C for 20 s followed by 40 cycles of 95 °C for 15 s and 60 °C for 1 min were used to detect mRNA expression. Relative SREBP/GAPDH gene expression was calculated by the delta-delta Ct method. To evaluate protein expression by western blotting, HepG2 cells were plated as above and treated with 300 nM of rexinoids for 24 h. Cells were harvested and lysed in RIPA buffer (1 M Tris–Cl, 5 M NaCl, pH 7.4, 0.5 M EDTA, 25 mM sodium deoxycholate, 1% triton-X, 0.1% SDS, 0.0125% aprotinin) with protease inhibitors (1% PMSF/0.5% apoprotein/0.1%leupeptin). Protein concentration was measured using a BCA assay (Sigma-Aldrich). Proteins (10 µg/well) were separated in 10% SDS-PAGE gels and transferred to nitrocellulose membranes. Membranes were incubated with SREBP (Active Motif; 1:1000) and GAPDH (Santa Cruz Biotechnology; 1:8000) primary antibodies followed by anti-rabbit secondary antibodies conjugated to horseradish peroxidase (Cell Signaling). Signal was detected using the ECL Western Blotting Substrate (GE Healthcare), and protein levels quantified using ImageJ.

[2] = system: SREBP; experiment: SREBP protein expression in HepG2 cells (western blot); assay type: cell-based, human; conditions: 300 nM rexinoids, 24 h
Method: Although we have confirmed that the iNOS assay correlates with in vivo efficacy, few investigators have used the induction of SREBP in vitro as a biomarker to predict the ability of novel rexinoids to increase triglycerides in vivo. Elevated triglycerides are a side-effect found with many RXR agonists in preclinical models and by bexarotene in humans[13],[14]. […] HepG2 human liver cells were used, as the liver is the major organ that regulates lipid homeostasis.
as §1

[3] = system: iNOS; experiment: iNOS inhibition assay (LPS-induced NO production, Griess reaction); assay type: cell-based, murine; conditions: RAW264.7 cells, 0–1000 nM rexinoids, LPS 1 ng/ml 24 h, NO by Griess assay, mean ± SE of 3 experiments, read-out: iNOS suppression IC50
Method: To evaluate the anti-inflammatory effects of the novel rexinoids, we utilized the iNOS suppression assay. Inhibition of iNOS in vitro directly correlates with efficacy in our preclinical model of Kras-driven lung cancer. RAW264.7 macrophage-like cells were treated with 0–1 μM rexinoids and stimulated with 1 ng/mL lipopolysaccharide for 24 h, and then NO was measured in the media.
RAW264.7 cells were plated in 96-well plates (20,000 cells/well). After overnight attachment, cells were treated with twofold serial dilutions (0–1000 nM) of rexinoids. After a 20 min incubation at 37 °C, cells were stimulated with 1 ng/mL LPS for 24 h. NO production was measured in culture medium using the Griess reaction. IC50 values were calculated using GraphPad Prism 8.1.2 software for Windows using a log([nM drug concentration]) vs. response curve fit.

[4] = system: A549 lung cancer cells; experiment: MTT proliferation assay; assay type: cell-based, human; conditions: 0–1 μM rexinoids, 72 hr
Method: were treated with 0-1 μM rexinoids for 72 hr. Proliferation was measured using the MTT assay.
MTT Assay. A549 cells were plated in 96-well plates (2,000 cells/well). After overnight attachment, cells were treated with 2 fold dilutions (0-1000 nM rexinoids) for 72 hr. 50 μL 3-(4,5-dimethylthiazol-2-yl)-2,5-diphenyltetrazolium bromide (MTT; Sigma M2128) was added to each well, and cells were incubated at 37 °C for 4 hr. Media was removed and cells were lysed with developing solution (0.04 M HCl in isopropanol). Plates were read at 550 nm.
(also on this page, place not known: 110A549 Cell Proliferation (% DMSO Control) 37°C)

[5] = Plasma triglycerides in MMTV-neu mice fed rexinoids; assay type: in vivo; conditions: MMTV-neu mice fed rexinoids for 10 days, n=5-6 mice/group
Method: fold expression triglyceride
Supplemental Fig 1. Correlation of SREPB mRNA expression and triglyceride levels. HepG2 human liver cells were treated with 300 nM of rexinoids for 8 hr,and lysates analyzed by RT-PCR. Triglycerides in plasma from MMTV-neu mice fed rexinoids for10 days were measured using a commercial kit(Abcam). *, p <0.01 vs control; **, p<0.05 vs bex and LG268; n=5-6 mice/group.

SMILES	IC50 ([3]; Mus musculus)	fold induction at 0.3 µM ([1]; HepG2, 8 h)	other results
Cc1cc(C)c(S(=O)(=O)N(Cc2ccc(-c3cccc(S(C)(=O)=O)c3)cc2)Cc2ccc(C(F)(F)F)o2)c(C)c1 [GSK 2033]			SREBP mRNA expression lowered by ([1]; HepG2, 8 h, GSK 2033 500 nM alone): ~ 50%; Effect on the induction of SREBP mRNA by LG100268 ([1]; HepG2, 8 h): partially reversed the induction of SREBP by LG100268
CN1c2ccc([N+](=O)[O-])cc2N=C(c2ccc(C(=O)O)cc2)c2cc3c(cc21)C(C)(C)CCC3(C)C [HX 531]			SREBP mRNA expression compared to the vehicle control ([1]; HepG2, 8 h): did not alter SREBP mRNA expression; Effect on the induction of SREBP mRNA by LG100268 ([1]; HepG2, 8 h): reversed the induction of SREBP by LG100268
CC(/C=C/[C@@H]1C[C@]1(C)c1ccc2c(c1)C(C)(C)CCC2(C)C)=C\C(=O)O [IRX194204]			SREBP protein levels compared to DMSO control [2]: increased SREBP protein levels
Cc1cc2c(cc1C1(c3ccc(C(=O)O)cn3)CC1)C(C)(C)CCC2(C)C [LG100268]			IC50 [3]: 83 ± 14 nM; SREBP mRNA expression compared to the vehicle control ([1]; HepG2, 8 h): 2.5 fold; SREBP activation Fold induction vs. Control [1]: 3.06 ± 0.7 fold; SREBP protein levels compared to DMSO control [2]: increased SREBP protein levels; Growth / proliferation of A549 lung cancer cells [4]: do not inhibit proliferation; Plasma triglyceride levels in mice [5]: 3.42 ± 0.4 nmol/µL
C/C(=C/C=C/C(C)=C/C(=O)O)c1cc(C(C)(C)C)cc(C(C)(C)C)c1OCC(F)F [LG101506]			SREBP activation Fold induction vs. Control [1]: 1.06 ± 0.3 fold; SREBP protein levels compared to DMSO control [2]: did not; Plasma triglyceride levels in mice [5]: 1.21 ± 0.1 nmol/µL
CCN(c1ccc(C(=O)O)cc1)c1cc(C(C)(C)C)cc(C(C)(C)C)c1 [MSU-41402]	343 ± 62 nM	1.37 ± 0.3	
C=C(c1ccc(C(=O)O)cc1)c1ccc(OCC(C)C)c(C(C)C)c1 [MSU-41405]	267 ± 32 nM	1.87 ± 0.3	
C=C(c1ccc(C(=O)O)cc1)c1cc(C(C)C)c(OC(C)C)cc1C [MSU-41407]	334 ± 17 nM	1.08 ± 0.1	
C=C(c1ccc(C(=O)O)cc1)c1cc(C(C)C)c(OCC)cc1C [MSU-41408]	300 ± 79 nM	2.55 ± 0.7	
CCN(c1cc(C(C)(C)C)cc(C(C)(C)C)c1)c1ccc(C(=O)O)cn1 [MSU-41564]	248 ± 60 nM	2.62 ± 0.7	
C=C(c1ccc(C(=O)O)cc1)c1cc(C(C)(C)C)cc(C(C)(C)C)c1 [MSU-41566]	239 ± 53 nM	1.12 ± 0.5	
CC(C)(C)c1cc(-n2c(C(F)(F)F)nc3cc(C(=O)O)ccc32)cc(C(C)(C)C)c1 [MSU-41567]	271 ± 92 nM	1.58 ± 0.2	
CC(C)(C)c1cc(N(CC2CC2)c2ccc(C(=O)O)cn2)cc(C(C)(C)C)c1 [MSU-41843]	274 ± 33 nM	2.48 ± 1.8	
O=S(=O)(c1ccccc1)N(CC(F)(F)F)c1ccc(C(O)(C(F)(F)F)C(F)(F)F)cc1 [T0901317]			SREBP mRNA expression compared to the vehicle control ([1]; HepG2, 8 h): 2.5 fold

Further lines, with some results ahead:

IC50 ([3]; Mus musculus)	SMILES	fold induction at 0.3 µM ([1]; HepG2, 8 h)	other results
331 ± 45 nM	C=C(c1ccc(C(=O)O)cc1)c1cc(C(C)(C)C)ccc1OCC [MSU-41403]	2.68 ± 0.2	
340 ± 25 nM	C=C(c1ccc(C(=O)O)cc1)c1cc2c(cc1C)CCCC2(C)C [MSU-41404]	3.07 ± 0.5	
252 ± 55 nM	C=C(c1ccc(C(=O)O)cc1)c1cc(C(C)C)c(OCC(C)C)cc1C [MSU-41406]	1.67 ± 0.2	
366 ± 49 nM	CCOc1c(N(CC)c2ccc(C(=O)O)cc2)cc(C(C)(C)C)cc1C(C)(C)C [MSU-41565]	1.59 ± 0.2	
295 ± 54 nM	CCN(c1cc(C(C)(C)C)cc(C(C)(C)C)c1)c1ncc(C(=O)O)cn1 [MSU-41582]	1.38 ± 0.4	
290 ± 61 nM	CCN(c1ccc(C(=O)O)cn1)c1cc(C(C)(C)C)ccc1C [MSU-41583]	1.59 ± 0.5	
389 ± 53 nM	CCN(c1cc(C(F)(F)F)cc(C(F)(F)F)c1)c1ccc(C(=O)O)cn1 [MSU-41844]	0.96 ± 0.5	
338 ± 31 nM	CCN(c1ccc(C(=O)O)cc1)c1cc(C(C)C)c(OCC(C)C)cc1C [MSU-41845]	1.45 ± 0.2	
347 ± 31 nM	CCN(c1ccc(C(=O)O)cc1)c1cc(C(C)(C)C)c(OC)c(C(C)(C)C)c1 [MSU-41846]	1.63 ± 0.3	
